# How the values were obtained:
# human D2L receptor = human D2L receptor (Homo sapiens, UniProt P14416); assay: Radioligand binding [3H]-raclopride, HEK293 membranes; conditions: HEK293 cells, human D2; read-out: hD2 [3H]-Raclopride Ki ± SEM
# Procedure: Rat brain cortical membranes were used as source of native rat D1 receptor protein, and human D2 receptor was recombinantly expressed in HEK293 cells.
# HEK293 cells with stable expression of human D2L receptor were maintained at 37 °C in a humidified atmosphere with 5% CO2 and grown in Dulbecco’s Modifier Eagle Medium containing 10% dialyzed fetal bovine serum and 500 µg/mL G418 sulfate. For membrane preparation, cells were subcultured in 150 cm^2 flasks, grown to 90% confluence, washed twice with prewarmed to 37 °C phosphate buffered saline (PBS), and pelleted by centrifugation (200× g) in PBS containing 0.1 mM EDTA and 1 mM dithiothreitol. Prior to membrane preparation, pellets were stored at −80 °C.
# Cell pellets were thawed and homogenized in 10 volumes of assay buffer using an Ultra Turrax tissue homogenizer and centrifuged twice at 35,000× g for 15 min at 4 °C. The incubation buffer consisted of 50 mM Tris-HCl, 1 mM EDTA, 4 mM MgCl2, 120 mM NaCl, 5 mM KCl, 1.5 mM CaCl2, and 0.1% ascorbate. Assay was incubated in a total volume of 200 µL in 96-well microtiter plate for 1 h at 37 °C. The process of equilibration was terminated by rapid filtration through Unifilter plate with a 96-well cell harvester and radioactivity retained on the filter was quantified on a Microbeta plate reader (PerkinElmer). For competition studies, the assay samples contained radioligand 2.5 nM [^3H]-raclopride (PerkinElmer). Non-specific binding was defined with 10 µM of haloperidol. Each compound was tested in triplicate at 7 concentrations (10^−10–10^−4 M). The inhibition constants (Ki) were calculated from the Cheng–Prusoff equation [66]. Results were expressed as means of at least two separate experiments.
# human MAO-A = molecular target: T1, human MAO-A (Homo sapiens, UniProt P21397); assay: Amplex Red monoamine oxidase assay, MAO-A; format: biochemical; conditions: for IC50: human recombinant MAO-A, read-out: MAO-A IC50 ± SEM; for inhibition at 1 µM: read-out: MAO-A % Inhibition ± SEM at 1 µM
# T1 construct: purchased Sigma Aldrich M7316
# T1 sequence (P21397 1-527): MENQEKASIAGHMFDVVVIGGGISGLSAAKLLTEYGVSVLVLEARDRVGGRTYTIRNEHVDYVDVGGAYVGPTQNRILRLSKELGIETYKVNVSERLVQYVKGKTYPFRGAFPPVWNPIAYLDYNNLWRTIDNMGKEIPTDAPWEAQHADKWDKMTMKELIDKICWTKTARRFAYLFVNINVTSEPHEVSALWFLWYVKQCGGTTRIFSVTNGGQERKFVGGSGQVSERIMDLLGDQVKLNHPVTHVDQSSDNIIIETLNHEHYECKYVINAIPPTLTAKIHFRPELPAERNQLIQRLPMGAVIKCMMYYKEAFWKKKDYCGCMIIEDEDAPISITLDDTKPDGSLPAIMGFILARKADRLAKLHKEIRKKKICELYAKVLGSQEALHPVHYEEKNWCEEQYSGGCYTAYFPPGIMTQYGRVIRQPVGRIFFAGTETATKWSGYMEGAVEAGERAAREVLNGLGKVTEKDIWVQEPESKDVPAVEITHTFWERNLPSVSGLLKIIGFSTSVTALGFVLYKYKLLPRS
# Procedure: The final compounds were evaluated in vitro for their human MAO-B (hMAO-B) inhibitory potencies, and selected structures were also investigated for human MAO-A (hMAO-A) inhibition.
# Inhibition activity of compounds at MAO enzyme isoforms was measured via a fluorometric method using the Amplex Red Monoamine Oxidase Assay (ThermoFisher Scientific, Waltham, MA, USA #A12214) in a 96-well plates. Human recombinant MAO-B and MAO-A enzymes (Sigma Aldrich, St. Louis, MO, USA #M7441 and #M7316) were used. The assays were conducted as previously described.
# human A2B (hA2B) ARs = molecular target: T2, human A2B (hA2B) ARs (Homo sapiens, UniProt P29275); assay: Radioligand binding [3H]PSB-603, CHO cell membranes; conditions: for Ki: CHO cell membranes, read-out: hA2B [3H]PSB-603 Ki ± SEM; for inhibition at 1 µM: read-out: hA2B [3H]PSB-603 % inhibition ± SEM at 1 µM
# T2 construct: expressed in transfected cells; host or cells: CHO cells (membranes)
# T2 sequence (P29275 1-332): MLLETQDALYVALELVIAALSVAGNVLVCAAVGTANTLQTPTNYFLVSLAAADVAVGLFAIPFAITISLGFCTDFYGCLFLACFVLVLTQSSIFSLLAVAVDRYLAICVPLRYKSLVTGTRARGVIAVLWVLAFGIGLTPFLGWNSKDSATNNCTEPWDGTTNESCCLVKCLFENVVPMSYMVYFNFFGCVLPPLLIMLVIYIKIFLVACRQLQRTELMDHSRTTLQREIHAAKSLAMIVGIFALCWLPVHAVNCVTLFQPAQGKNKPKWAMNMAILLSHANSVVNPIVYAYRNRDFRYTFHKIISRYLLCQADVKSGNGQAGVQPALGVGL
# Procedure: (§1) The final compounds were tested in radioligand binding assays to evaluate their affinity for all four ARs subtypes (see Table 2). Rat brain cortical membrane preparations were used as a source of rat A1 (rA1) ARs, and rat brain striatal membrane preparations served as a source of rat A2A (rA2A) ARs. For A2B- and A3AR assays, membrane preparations of Chinese hamster ovary (CHO) cells recombinantly expressing either human A2B (hA2B) or human A3 (hA3) ARs were employed.
# (§2) Adenosine receptor radioligand binding assays were performed as previously described using rat brain cortical membrane preparations for A1 and rat brain striatal membrane preparations for A2A AR assays. Frozen rat brains (unstripped) were obtained from Pel Freez, Rogers, AR, USA. For assays at human AR subtypes, cell membranes of CHO cells recombinantly expressing the respective receptor were used. The following compounds were employed as radioligands: A1: [^3H]2-chloro-N^6-cyclopentyladenosine ([^3H]CCPA); A2A: [^3H]3-(3-hydroxypropyl)-7-methyl-8-(m-methoxystyryl)-1-propargylxanthine ([^3H]MSX-2); A2B: [^3H]8-(4-(4-(4-chlorophenyl)piperazine-1-sulfonyl)phenyl)-1-propylxanthine ([^3H]PSB-603); A3: [^3H]phenyl-8-ethyl-4-methyl-(8R)-4,5,7,8-tetrahydro-1H-imidazo[2,1-i]purine-5-one ([^3H]PSB-11). Initially, a single high concentration of compound was tested (1 µM). For potent compounds, full concentration–inhibition curves were determined using six to ten different concentrations of test compound spanning three orders of magnitude. At least three independent experiments were performed. Data were analyzed using GraphPad PRISM program version 4.0 or higher (Graph Pad, San Diego, CA, USA).
# rat A2A (rA2A) ARs = molecular target: T3, rat A2A (rA2A) ARs (Rattus norvegicus, UniProt P30543); assay: Radioligand binding [3H]MSX-2, rat brain striatal membranes; conditions: read-out: rA2A [3H]MSX-2 Ki ± SEM
# T3 construct: rat brain striatal membrane preparations for A2A AR assays; tissue Pel Freez; host or cells: rat brain striatum membranes
# T3 sequence (P30543 whole entry): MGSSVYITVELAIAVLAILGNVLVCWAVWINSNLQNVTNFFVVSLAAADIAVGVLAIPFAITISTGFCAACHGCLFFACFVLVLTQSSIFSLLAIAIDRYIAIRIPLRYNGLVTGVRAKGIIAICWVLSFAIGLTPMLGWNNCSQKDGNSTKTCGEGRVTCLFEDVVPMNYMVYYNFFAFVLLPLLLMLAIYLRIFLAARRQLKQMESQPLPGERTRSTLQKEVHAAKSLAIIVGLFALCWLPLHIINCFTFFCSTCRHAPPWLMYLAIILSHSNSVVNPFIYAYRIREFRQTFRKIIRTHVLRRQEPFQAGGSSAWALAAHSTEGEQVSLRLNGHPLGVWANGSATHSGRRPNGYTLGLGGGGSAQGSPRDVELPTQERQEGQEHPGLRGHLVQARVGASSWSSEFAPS
# Procedure: as §1, §2
# human D2L receptor, sequence (P14416 whole entry): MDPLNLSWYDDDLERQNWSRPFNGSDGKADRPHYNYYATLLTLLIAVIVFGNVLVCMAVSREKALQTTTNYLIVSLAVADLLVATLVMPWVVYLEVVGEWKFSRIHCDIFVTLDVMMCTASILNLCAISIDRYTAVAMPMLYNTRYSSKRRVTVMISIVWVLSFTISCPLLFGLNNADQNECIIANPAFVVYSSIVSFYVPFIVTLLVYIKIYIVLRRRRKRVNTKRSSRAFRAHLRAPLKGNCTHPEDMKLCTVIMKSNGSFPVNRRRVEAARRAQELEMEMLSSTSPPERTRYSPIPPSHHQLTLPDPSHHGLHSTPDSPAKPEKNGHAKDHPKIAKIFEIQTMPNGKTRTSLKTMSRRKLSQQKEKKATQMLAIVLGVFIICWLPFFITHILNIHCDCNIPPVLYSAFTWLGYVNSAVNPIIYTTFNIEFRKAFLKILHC
Ki (human D2L receptor),IC50 (human MAO-A),Ki (human A2B (hA2B) ARs),inhibition at 1 µM (human A2B (hA2B) ARs),Ki (rat A2A (rA2A) ARs),inhibition at 1 µM (human MAO-A),SMILES
9950 ± 1950 nM,256 ± 93 nM,> 1000 nM,-9%,≥ 10000 nM,,"Cn1c(=O)c2c(nc(NCCc3ccc(O)c(O)c3)n2CCc2ccccc2)n(C)c1=O [Compound 11k, 8-((3,4-Dihydroxyphenethyl)amino)-1,3-dimethyl-7-phenethyl-3,7-dihydro-1H-purine-2,6-dione]"
16200 ± 1230 nM,891 ± 63 nM,> 1000 nM,-2%,672 ± 83 nM,,"CCn1c(NCCc2ccc(O)c(O)c2)nc2c1c(=O)n(C)c(=O)n2C [Compound 11b, 8-((3,4-Dihydroxyphenethyl)amino)-7-ethyl-1,3-dimethyl-3,7-dihydro-1H-purine-2,6-dione]"
25200 ± 5970 nM,> 1000 nM,> 1000 nM,20%,370 ± 63 nM,44%,"Cn1c(=O)c2c(nc(NCCc3ccc(O)c(O)c3)n2C)n(C)c1=O [Compound 11a, 8-((3,4-Dihydroxyphenethyl)amino)-1,3,7-trimethyl-3,7-dihydro-1H-purine-2,6-dione]"
13300 ± 2200 nM,~1000 nM,> 1000 nM,34%,833 ± 81 nM,57%,"CCCn1c(=O)c2c(nc(NCCc3ccc(O)c(O)c3)n2CCC)n(CCC)c1=O [Compound 12, 8-((3,4-Dihydroxyphenethyl)amino)-1,3,7-tripropyl-3,7-dihydro-1H-purine-2,6-dione]"

# Source: article PMC10377586 (Biomolecules, 2023)
